Measurements published in the supplement of paper PMC10307832.

Legend:
Assay in all cases: relative viability (nuclei count vs DMSO), 5 days (fraction); higher = more cells survive
[1] = compound: CN[C@@H]1C[C@H]2O[C@@](C)([C@@H]1OC)n1c3ccccc3c3c4c(c5c6ccccc6n2c5c31)C(=O)NC4 [Staurosporine] + Cc1nc(Nc2ncc(C(=O)Nc3c(C)cccc3Cl)s2)cc(N2CCN(CCO)CC2)n1 [Dasatinib] (partner 0.075 µM)
Procedure, shortened: (§1)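 Lung cancer cell lines in 1536-well plates were dosed by pin tool the day after seeding, either with one drug alone or with a fixed anchor-drug dose plus five library-drug doses (not always all listed) in √10 steps. After 5 days, cells were fixed and their nuclei stained in one step (final 0.05% Triton X-100, 1% formaldehyde, 1 ug/ml Hoechst), then counted on 4× images. Relative viability is the nuclei count in treated wells divided by that in vehicle wells. Values are medians of duplicate plates.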

[2] = compound: O=c1[nH]cc(F)c(=O)[nH]1 [5-Fluorouracil] + CC(C)C[C@H](NC(=O)[C@H](Cc1ccccc1)NC(=O)c1cnccn1)B(O)O [Bortezomib] (partner 0.002 µM)
Procedure, shortened: as §1

Sulindac + Phenformin = compound: CC1=C(CC(=O)O)c2cc(F)ccc2/C1=C\c1ccc([S+](C)[O-])cc1 [Sulindac] + N=C(N)NC(=N)NCCc1ccccc1 [Phenformin] (partner 250 µM)
Procedure, shortened: as §1

Sulindac + Crizotinib = compound: CC1=C(CC(=O)O)c2cc(F)ccc2/C1=C\c1ccc([S+](C)[O-])cc1 [Sulindac] + C[C@@H](Oc1cc(-c2cnn(C3CCNCC3)c2)cnc1N)c1c(Cl)ccc(F)c1Cl [Crizotinib] (partner 1 µM)
Procedure, shortened: as §1

Cell Line | relative viability ([1]; first compound 0.005 µM) | relative viability ([1]; first compound 0.01581 µM) | relative viability ([1]; first compound 0.05 µM) | relative viability ([1]; first compound 0.1581 µM) | relative viability ([1]; first compound 0.5 µM) | relative viability ([2]; first compound 0.02 µM) | relative viability ([2]; first compound 0.2 µM) | relative viability ([2]; first compound 0.6325 µM) | relative viability ([2]; first compound 2 µM) | relative viability (Sulindac + Phenformin; first compound 0.08 µM) | relative viability (Sulindac + Phenformin; first compound 0.253 µM) | relative viability (Sulindac + Phenformin; first compound 0.8 µM) | relative viability (Sulindac + Phenformin; first compound 2.53 µM) | relative viability (Sulindac + Phenformin; first compound 8 µM) | relative viability (Sulindac + Crizotinib; first compound 0.08 µM) | relative viability (Sulindac + Crizotinib; first compound 0.253 µM) | relative viability (Sulindac + Crizotinib; first compound 0.8 µM) | relative viability (Sulindac + Crizotinib; first compound 2.53 µM) | relative viability (Sulindac + Crizotinib; first compound 8 µM)
LC-2-ad | 0.488 | 0.188 | 0.193 | 0.194 | 0.141 | 1.01 | 0.914 | 0.598 | 0.276 | 0.513 | 0.61 | 0.427 | 0.516 | 0.697 | 0.423 | 0.516 | 0.404 | 0.46 | 0.466
LCLC-97TM1 | 0.611 | 0.254 | 0.286 | 0.378 | 0.293 | 0.53 | 1.03 | 0.396 | 0.12 | 0.497 | 0.518 | 0.447 | 0.441 | 0.486 | 0.435 | 0.373 | 0.319 |  | 0.418
LCLC-103H | 0.307 | 0.108 | 0.113 | 0.134 | 0.103 | 0.99 | 1.18 | 0.931 | 0.632 | 0.361 | 0.318 | 0.286 | 0.315 | 0.323 | 1.09 | 1.11 | 0.952 | 1.11 | 1.09
LOU-NH91 | 0.36 | 0.285 | 0.299 | 0.286 | 0.203 | 0.522 | 0.559 | 0.37 | 0.36 | 0.708 | 0.68 | 0.681 | 0.717 | 0.853 | 0.978 | 0.768 | 0.697 | 0.688 | 0.75
LU99A | 0.353 | 0.227 | 0.176 | 0.191 | 0.112 | 1.08 | 1.14 | 1.01 | 0.593 | 0.86 | 0.853 | 0.83 | 0.827 | 1.11 | 0.636 | 0.515 | 0.543 | 0.474 | 0.57
LXF-289 | 0.119 | 0.068 | 0.112 | 0.0474 | 0.0343 | 0.99 | 0.712 | 0.312 | 0.282 | 0.551 | 0.559 | 0.491 | 0.517 | 0.559 | 0.844 | 0.868 | 0.776 | 0.85 | 0.855
NCI-H23 | 0.833 |  | 0.259 | 0.13 | 0.154 | 1.07 | 1.34 | 0.598 | 0.309 | 0.819 |  | 0.61 | 0.819 | 0.824 | 0.39 | 0.643 | 0.359 | 0.689 | 0.504
NCI-H322M | 0.365 | 0.401 | 0.324 | 0.277 | 0.273 | 1.44 | 1.17 | 1.03 | 0.652 | 0.881 | 0.833 | 0.668 | 0.762 | 0.879 | 1.02 | 1.05 | 0.687 | 1.03 | 1.05
NCI-H441 | 0.705 | 0.326 | 0.572 | 0.163 | 0.082 | 0.513 | 0.408 | 0.482 | 0.303 | 0.992 | 1.03 | 0.456 | 0.808 | 0.958 | 0.709 | 0.719 | 0.626 | 0.651 | 0.946
NCI-H460 | 0.575 | 0.27 | 0.375 | 0.0523 | 0.009 | 1.34 | 0.488 | 0.141 | 0.0496 | 1.03 | 0.666 | 0.201 | 0.543 | 0.585 | 1.41 | 1.07 |  | 0.833 | 1.19
NCI-H520 | 0.278 | 0.251 | 0.215 | 0.176 | 0.171 | 0.587 | 0.438 | 0.382 | 0.312 | 0.738 | 0.949 | 0.412 | 0.347 | 0.67 | 0.801 | 0.747 | 0.445 | 0.828 | 0.876
NCI-H596 | 0.7 | 0.467 | 0.276 | 0.226 | 0.183 | 1.14 | 0.794 | 0.694 | 0.597 | 0.839 | 0.892 | 0.56 | 0.71 | 0.771 | 0.896 | 1.05 | 0.913 | 0.991 | 1.04
NCI-H647 | 0.0983 | 0.0707 | 0.0669 | 0.073 | 0.0532 | 0.925 | 1.15 | 0.992 | 0.61 | 0.647 | 0.717 | 0.246 | 0.623 | 0.645 | 1.4 | 1.21 | 0.879 | 1.26 | 1.35
NCI-H650 | 0.284 | 0.264 | 0.271 | 0.229 | 0.223 | 0.894 | 0.622 | 0.517 | 0.529 | 0.448 | 0.466 | 0.389 | 0.471 | 0.502 | 0.788 | 0.73 | 0.793 | 0.637 | 0.914
NCI-H661 | 0.67 | 0.349 | 0.381 | 0.347 | 0.123 | 0.669 | 0.816 | 0.759 | 0.804 | 0.244 | 0.258 | 0.28 | 0.246 | 0.277 | 0.973 | 1.03 | 1.03 | 1.17 | 0.973
NCI-H727 | 0.47 | 0.579 | 0.363 | 0.235 | 0.184 | 1 | 1.01 | 0.776 | 0.782 | 0.406 | 0.554 |  | 0.564 | 0.584 | 0.964 | 0.779 | 0.782 | 0.856 | 1.03
NCI-H838 | 0.267 | 0.203 | 0.225 | 0.177 | 0.178 | 0.732 | 0.794 | 0.637 | 0.281 | 0.519 | 0.652 | 0.364 | 0.518 | 0.6 | 1.12 | 0.781 | 0.674 | 0.903 | 0.884
